ChEMBL document CHEMBL3352739, “Comparative in vivo evaluation of polyalkoxy substituted 4H-chromenes and oxa-podophyllotoxins as microtubule destabilizing agents in the phenotypic sea urchin embryo assay” (2014)

How the values were obtained:
MDA-MB-468 = assay: Growth inhibition of human MDA-MB-468 cells after 48 hrs by sulforhodamine B assay; type: functional; settings: MDA-MB-468, 48 h
[1] = Growth inhibition of human Hs 578T cells after 48 hrs by sulforhodamine B assay; type: functional
HT-29 = assay: Growth inhibition of human HT-29 cells after 48 hrs by sulforhodamine B assay; type: functional; settings: HT-29, 48 h
ACHN = assay: Growth inhibition of human ACHN cells after 48 hrs by sulforhodamine B assay; type: functional
[2] = Growth inhibition of human PC3 cells after 48 hrs by sulforhodamine B assay; type: functional; settings: PC-3, 48 h
NCI-H460 = assay: Growth inhibition of human NCI-H460 cells after 48 hrs by sulforhodamine B assay; type: functional; settings: NCI-H460, 48 h
[3] = Growth inhibition of human UACC62 cells after 48 hrs by sulforhodamine B assay; type: functional; settings: UACC-62, 48 h
[4] = Growth inhibition of human HCC2998 cells after 48 hrs by sulforhodamine B assay; type: functional; settings: HCC 2998, 48 h
SK-MEL-5 = assay: Growth inhibition of human SK-MEL-5 cells after 48 hrs by sulforhodamine B assay; type: functional; settings: SK-MEL-5, 48 h
[5] = Growth inhibition of human OVCAR8 cells after 48 hrs by sulforhodamine B assay; type: functional; settings: OVCAR-8, 48 h
[6] = Growth inhibition of human SF295 cells after 48 hrs by sulforhodamine B assay; type: functional; settings: SF-295, 48 h
SNB-75 = assay: Growth inhibition of human SNB75 cells after 48 hrs by sulforhodamine B assay; type: functional; settings: SNB-75, 48 h
A549 = assay: Growth inhibition of human A549/ATCC cells after 48 hrs by sulforhodamine B assay; type: functional; settings: A549, 48 h
HOP-62 = assay: Growth inhibition of human HOP62 cells after 48 hrs by sulforhodamine B assay; type: functional; settings: HOP-62, 48 h
[7] = Growth inhibition of human RPMI8226 cells after 48 hrs by sulforhodamine B assay; type: functional; settings: RPMI-8226, 48 h
SR = assay: Growth inhibition of human SR cells after 48 hrs by sulforhodamine B assay; type: functional
SF-268 = assay: Growth inhibition of human SF268 cells after 48 hrs by sulforhodamine B assay; type: functional; settings: SF-268, 48 h
NCI-H322M = assay: Growth inhibition of human NCI-H322M cells after 48 hrs by sulforhodamine B assay; type: functional
MDA-MB-435 = assay: Growth inhibition of human MDA-MB-435 cells after 48 hrs by sulforhodamine B assay; type: functional; settings: MDA-MB-435, 48 h
[8] = Growth inhibition of human OVCAR3 cells after 48 hrs by sulforhodamine B assay; type: functional; settings: OVCAR-3, 48 h
NCI-H226 = assay: Growth inhibition of human NCI-H226 cells after 48 hrs by sulforhodamine B assay; type: functional; settings: NCI-H226, 48 h
KM12 = assay: Growth inhibition of human KM12 cells after 48 hrs by sulforhodamine B assay; type: functional; settings: KM12, 48 h
SNB-19 = assay: Growth inhibition of human SNB19 cells after 48 hrs by sulforhodamine B assay; type: functional; settings: SNB-19, 48 h
[9] = Cytotoxicity against human NCI60 cells; type: functional
[10] = Growth inhibition of human UACC257 cells after 48 hrs by sulforhodamine B assay; type: functional; settings: UACC-257, 48 h
A498 = assay: Growth inhibition of human A498 cells after 48 hrs by sulforhodamine B assay; type: functional; settings: A498, 48 h
Paracentrotus lividus [11] = assay: Antimitotic microtubule destabilizing activity in Paracentrotus lividus L embryos assessed as induction of cleavage arrest
U-251 = assay: Growth inhibition of human U251 cells after 48 hrs by sulforhodamine B assay; type: functional; settings: U-251, 48 h
IGROV-1 = assay: Growth inhibition of human IGROV1 cells after 48 hrs by sulforhodamine B assay; type: functional; settings: IGROV-1, 48 h
Paracentrotus lividus [12] = assay: Antimitotic microtubule destabilizing activity in Paracentrotus lividus L embryos assessed as induction of cleavage alteration
DU-145 = assay: Growth inhibition of human DU145 cells after 48 hrs by sulforhodamine B assay; type: functional; settings: DU-145, 48 h
CCRF-CEM = assay: Growth inhibition of human CCRF-CEM cells after 48 hrs by sulforhodamine B assay; type: functional
HL-60(TB) = assay: Growth inhibition of human HL-60(TB) cells after 48 hrs by sulforhodamine B assay; type: functional; settings: HL-60, 48 h
[13] = Growth inhibition of human HCT116 cells after 48 hrs by sulforhodamine B assay; type: functional; settings: HCT-116, 48 h
MCF7 = assay: Growth inhibition of human MCF7 cells after 48 hrs by sulforhodamine B assay; type: functional; settings: MCF7, 48 h
[14] = Growth inhibition of human NCI-ADR-RES cells after 48 hrs by sulforhodamine B assay; type: functional
CAKI-1 = assay: Growth inhibition of human CAKI-1 cells after 48 hrs by sulforhodamine B assay; type: functional; settings: CAKI-1, 48 h
[15] = Growth inhibition of human EKVX cells after 48 hrs by sulforhodamine B assay; type: functional
[16] = Growth inhibition of human HCT15 cells after 48 hrs by sulforhodamine B assay; type: functional; settings: HCT-15, 48 h
NCI-H23 = assay: Growth inhibition of human NCI-H23 cells after 48 hrs by sulforhodamine B assay; type: functional; settings: NCI-H23, 48 h
[17] = Growth inhibition of human UO31 cells after 48 hrs by sulforhodamine B assay; type: functional; settings: UO-31, 48 h
[18] = Growth inhibition of human COLO205 cells after 48 hrs by sulforhodamine B assay; type: functional; settings: COLO 205, 48 h
[19] = Growth inhibition of human SF539 cells after 48 hrs by sulforhodamine B assay; type: functional; settings: SF-539, 48 h
786-0 = assay: Growth inhibition of human 786-0 cells after 48 hrs by sulforhodamine B assay; type: functional; settings: 786-0, 48 h
SK-OV-3 = assay: Growth inhibition of human SKOV3 cells after 48 hrs by sulforhodamine B assay; type: functional; settings: SK-OV-3, 48 h
[20] = Growth inhibition of human H1299 cells after 48 hrs by sulforhodamine B assay; type: functional; settings: NCI-H1299, 48 h
[21] = Growth inhibition of human HOP92 cells after 48 hrs by sulforhodamine B assay; type: functional; settings: HOP-92, 48 h
[22] = Growth inhibition of human MOLT4 cells after 48 hrs by sulforhodamine B assay; type: functional; settings: MOLT-4, 48 h
SW-620 = assay: Growth inhibition of human SW620 cells after 48 hrs by sulforhodamine B assay; type: functional; settings: SW-620, 48 h
K562 = assay: Growth inhibition of human K562 cells after 48 hrs by sulforhodamine B assay; type: functional; settings: K562, 48 h
[23] = Growth inhibition of human RXF393 cells after 48 hrs by sulforhodamine B assay; type: functional; settings: RXF 393, 48 h
[24] = Growth inhibition of human LOXIMVI cells after 48 hrs by sulforhodamine B assay; type: functional; settings: LOX IMVI
Paracentrotus lividus [25] = assay: Antimitotic microtubule destabilizing activity in Paracentrotus lividus L embryos assessed as induction of embryo spinning
[26] = Growth inhibition of human OVCAR4 cells after 48 hrs by sulforhodamine B assay; type: functional; settings: OVCAR-4, 48 h
T47D = assay: Growth inhibition of human T47D cells after 48 hrs by sulforhodamine B assay; type: functional
SK-MEL-2 = assay: Growth inhibition of human SK-MEL-2 cells after 48 hrs by sulforhodamine B assay; type: functional; settings: SK-MEL-2, 48 h
NCI-H522 = assay: Growth inhibition of human NCI-H522 cells after 48 hrs by sulforhodamine B assay; type: functional; settings: NCI-H522, 48 h
[27] = Growth inhibition of human BT549 cells after 48 hrs by sulforhodamine B assay; type: functional; settings: BT-549, 48 h
MDA-MB-231 = assay: Growth inhibition of human MDA-MB-231 cells after 48 hrs by sulforhodamine B assay; type: functional; settings: MDA-MB-231, 48 h
SN12C = assay: Growth inhibition of human SN12C cells after 48 hrs by sulforhodamine B assay; type: functional
M14 = assay: Growth inhibition of human M14 cells after 48 hrs by sulforhodamine B assay; type: functional; settings: M14, 48 h
SK-MEL-28 = assay: Growth inhibition of human SK-MEL-28 cells after 48 hrs by sulforhodamine B assay; type: functional; settings: SK-MEL-28, 48 h
[28] = Growth inhibition of human OVCAR5 cells after 48 hrs by sulforhodamine B assay; type: functional; settings: OVCAR-5, 48 h
TK-10 = assay: Growth inhibition of human TK10 cells after 48 hrs by sulforhodamine B assay; type: functional; settings: TK-10, 48 h

What does the source list for `COc1ccc2c(c1)OC(N)=C(C#N)C2c1cc(OC)c(OC)c(OC)c1` (racemic)?
GI50 (MDA-MB-468): 21.6 nM; GI50 [1]: 49 nM; GI50 (HT-29): 27.8 nM; GI50 (ACHN): 76 nM; GI50 [2]: 42.8 nM; GI50 (NCI-H460): 34.4 nM; GI50 [3]: 37.9 nM; GI50 [4]: 28.2 nM; GI50 (SK-MEL-5): 24 nM; GI50 [5]: 34.5 nM; GI50 [6]: 25.2 nM; GI50 (SNB-75): 42.9 nM; GI50 (A549): 37.6 nM; GI50 (HOP-62): 62.6 nM; GI50 [7]: 37.9 nM; GI50 (SR): 27.1 nM; GI50 (SF-268): 73.2 nM; GI50 (NCI-H322M): 48 nM; GI50 (MDA-MB-435): 15 nM; GI50 [8]: 25.8 nM; GI50 (NCI-H226): 83.9 nM; GI50 (KM12): 25.1 nM; GI50 (SNB-19): 86.4 nM; GI50 [9]: 45 nM; GI50 [10]: 37.1 nM; GI50 (A498): 20.9 nM; EC (Paracentrotus lividus [11]): 0.05 µM; GI50 (U-251): 26.2 nM; GI50 (IGROV-1): 42.5 nM; EC (Paracentrotus lividus [12]): 0.01 µM; GI50 (DU-145): 25.2 nM; GI50 (CCRF-CEM): 33.7 nM; GI50 (HL-60(TB)): 25.6 nM; GI50 [13]: 30.6 nM; GI50 (MCF7): 34.2 nM; GI50 [14]: 19.9 nM; GI50 (CAKI-1): 146 nM; GI50 [15]: 251 nM; GI50 [16]: 32.8 nM; GI50 (NCI-H23): 36.5 nM; GI50 [17]: 1570 nM; GI50 [18]: 28.1 nM; GI50 [19]: 33.5 nM; GI50 (786-0): 49.4 nM; GI50 (SK-OV-3): 33 nM; GI50 [20]: 45 nM; GI50 [21]: 20.7 nM; GI50 [22]: 37 nM; GI50 (SW-620): 38.8 nM; GI50 (K562): 34.3 nM; GI50 [23]: 25.9 nM; GI50 [24]: 34 nM; EC (Paracentrotus lividus [25]): 0.5 µM; GI50 [26]: 80.8 nM; GI50 (T47D): > 100000 nM; GI50 (SK-MEL-2): 27.6 nM; GI50 (NCI-H522): 12.3 nM; GI50 [27]: 25 nM; GI50 (MDA-MB-231): 38.1 nM; GI50 (SN12C): 58.7 nM; GI50 (M14): 25.5 nM

What does the source list for `COc1cc(C2C(C#N)=C(N)Oc3cc(O)ccc32)cc(OC)c1OC` (configuration not stated)?
GI50 (MDA-MB-468): 250 nM; GI50 [1]: 463 nM; GI50 (HT-29): 392 nM; GI50 (ACHN): 922 nM; GI50 [2]: 462 nM; GI50 (NCI-H460): 374 nM; GI50 [3]: 358 nM; GI50 [4]: 975 nM; GI50 (SK-MEL-5): 305 nM; GI50 [5]: 836 nM; GI50 [6]: 323 nM; GI50 (SNB-75): 271 nM; GI50 (A549): 638 nM; GI50 (HOP-62): 796 nM; GI50 [7]: 691 nM; GI50 (SR): 371 nM; GI50 (SF-268): 14500 nM; GI50 (NCI-H322M): 783 nM; GI50 (MDA-MB-435): 136 nM; GI50 [8]: 338 nM; GI50 (NCI-H226): 31200 nM; GI50 (KM12): 451 nM; GI50 (SNB-19): 811 nM; GI50 [9]: 692 nM; GI50 (A498): 161 nM; EC (Paracentrotus lividus [11]): > 4 µM; GI50 (U-251): 349 nM; GI50 (IGROV-1): 2840 nM; EC (Paracentrotus lividus [12]): 4 µM; GI50 (DU-145): 637 nM; GI50 (CCRF-CEM): 375 nM; GI50 (HL-60(TB)): 327 nM; GI50 [13]: 453 nM; GI50 (MCF7): 324 nM; GI50 [14]: 2320 nM; GI50 (CAKI-1): 885 nM; GI50 (SK-MEL-28): 934 nM; GI50 [15]: 6490 nM; GI50 [16]: 513 nM; GI50 (NCI-H23): 813 nM; GI50 [17]: 2800 nM; GI50 [18]: 852 nM; GI50 [19]: 347 nM; GI50 (786-0): 605 nM; GI50 (SK-OV-3): 560 nM; GI50 [28]: 4520 nM; GI50 [21]: 301 nM; GI50 [22]: 652 nM; GI50 (TK-10): 9830 nM; GI50 (SW-620): 347 nM; GI50 (K562): 460 nM; GI50 [23]: 287 nM; GI50 [24]: 523 nM; EC (Paracentrotus lividus [25]): > 4 µM; GI50 [26]: 3490 nM; GI50 (SK-MEL-2): 539 nM; GI50 (NCI-H522): 255 nM; GI50 [27]: 386 nM; GI50 (MDA-MB-231): 927 nM; GI50 (SN12C): 790 nM; GI50 (M14): 375 nM
